Measured values reported in patent US10183035B2, “Etoposide and prodrugs thereof for use in targeting cancer stem cells” (CELLACT PHARMA GMBH, priority 2013, dated 2019).

Columns and labels:
cells = test: apoptosis induction / cell cycle measurements in cells; type: cell-based
[1] = target: MDR-1 gene product P-glycoprotein (Homo sapiens, UniProt P08183); test: P-glycoprotein-mediated substrate efflux; type: cell-based
MDR-1 gene product P-glycoprotein, sequence (P08183 whole entry): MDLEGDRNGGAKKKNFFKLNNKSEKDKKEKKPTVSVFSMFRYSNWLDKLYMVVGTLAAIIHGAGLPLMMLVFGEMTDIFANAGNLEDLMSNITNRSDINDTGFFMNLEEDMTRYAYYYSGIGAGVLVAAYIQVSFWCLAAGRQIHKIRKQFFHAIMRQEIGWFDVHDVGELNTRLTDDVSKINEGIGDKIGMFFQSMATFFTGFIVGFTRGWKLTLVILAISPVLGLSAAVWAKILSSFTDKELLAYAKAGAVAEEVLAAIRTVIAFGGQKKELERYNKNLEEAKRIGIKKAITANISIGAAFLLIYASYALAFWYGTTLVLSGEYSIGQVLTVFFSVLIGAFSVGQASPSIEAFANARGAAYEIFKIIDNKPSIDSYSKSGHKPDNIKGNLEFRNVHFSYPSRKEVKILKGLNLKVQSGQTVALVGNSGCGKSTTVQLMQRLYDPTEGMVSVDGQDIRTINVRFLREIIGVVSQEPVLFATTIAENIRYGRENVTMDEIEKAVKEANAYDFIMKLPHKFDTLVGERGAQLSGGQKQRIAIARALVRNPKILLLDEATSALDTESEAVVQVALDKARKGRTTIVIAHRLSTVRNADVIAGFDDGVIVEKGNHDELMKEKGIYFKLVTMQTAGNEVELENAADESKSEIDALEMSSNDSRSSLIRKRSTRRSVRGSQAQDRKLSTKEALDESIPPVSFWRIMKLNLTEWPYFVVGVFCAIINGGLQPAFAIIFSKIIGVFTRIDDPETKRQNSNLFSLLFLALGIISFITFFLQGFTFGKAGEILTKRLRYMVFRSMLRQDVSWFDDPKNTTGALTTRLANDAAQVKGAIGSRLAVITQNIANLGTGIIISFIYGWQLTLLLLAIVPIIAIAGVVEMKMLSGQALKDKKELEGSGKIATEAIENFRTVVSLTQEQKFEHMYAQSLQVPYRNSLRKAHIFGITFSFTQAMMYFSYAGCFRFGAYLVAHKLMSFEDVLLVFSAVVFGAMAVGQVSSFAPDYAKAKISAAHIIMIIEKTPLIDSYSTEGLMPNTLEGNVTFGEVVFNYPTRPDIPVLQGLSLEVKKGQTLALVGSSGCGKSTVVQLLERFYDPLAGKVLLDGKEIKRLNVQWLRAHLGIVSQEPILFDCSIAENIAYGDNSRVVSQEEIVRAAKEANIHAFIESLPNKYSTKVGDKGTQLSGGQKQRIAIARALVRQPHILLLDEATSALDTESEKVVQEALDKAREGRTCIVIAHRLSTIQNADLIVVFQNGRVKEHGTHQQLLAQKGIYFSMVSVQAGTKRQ

COc1cc([C@@H]2c3cc4c(cc3[C@@H](O[C@@H]3O[C@@H]5CO[C@@H](C)O[C@H]5[C@H](O)[C@H]3O)[C@H]3COC(=O)[C@H]23)OCO4)cc(OC)c1O [etoposide] was tested, and the “apoptosis is complete after” value (cells) was 48 h, the “effect on P-glycoprotein” value [1] was “ineffective” and the “retention in cells / efflux” value [1] was “pumped out of the cells”.
